# Test results: US11622991B2, “Protocol for treatment of lupus nephritis” (Aurinia Pharmaceuticals Inc., priority 2017, dated 2023)
# Tests used:
# lupus nephritis [1] = assay: Predictability from early reduction in UPCR or C3/C4 normalization combined at 12 weeks (Tables 13-17); format: in vivo, human
# Text: (§1) PR is defined as at least 50% reduction in proteinuria (i.e. UPCR).
# (§2) Sensitivity is defined as the probability that a subject showing PR at 48 weeks would have shown a favorable result with regard to the marker at the designated early time point. In the tables below, this is the ratio of the number of subjects with favorable marker results (early drop or normalization) to the total subjects with 48 week PR.
# (§3) Specificity is defined as the probability that a subject not showing PR at 48 weeks would have shown an unfavorable result with regard to the marker at the designated early time point. In the tables below, this is the ratio of the number of subjects with unfavorable marker results (no early drop or no normalization) to the total subjects with no 48 week PR.
# (§4) Positive predictive value is defined as the probability that a subject showing a favorable result with respect to the marker at an earlier time point would show PR at 48 weeks. In the tables below, this is the ratio of the number of subjects with favorable marker results who have 48 week PR to those with favorable marker results (early reduction or yes column).
# Negative predictive value is defined as the probability that a subject showing an unfavorable result with respect to the marker at an earlier time point would not show PR at 48 weeks. In the tables below, this is the ratio of the number of subjects with unfavorable marker results who have no PR at 48 weeks to the total subjects with unfavorable marker results (no early reduction or no column). […]
# lupus nephritis [2] = assay: Predictability of week 48 partial remission from early C3/C4 normalization (Table 12); format: in vivo, human
# Text: as §1, §2, §3, §4
# Negative predictive value is defined as the probability that a subject showing an unfavorable result with respect to the marker at an earlier time point would not show PR at 48 weeks. In the tables below, this is the ratio of the number of subjects with unfavorable marker results who have no PR at 48 weeks to the total subjects with unfavorable marker results (no early reduction or no column).
# Another criterion for effectiveness is normalization of C3 and/or C4 concentration in blood. The normal concentration of C3 is 90 mg/dl or greater and for C4 16 mg/dl or greater.
# [3] = Early 35% reduction in UPCR or C3/C4 normalization, Week 24, 23.7 mg BID, number of patients
# [4] = Early 35% reduction in UPCR or C3/C4 normalization, Week 48, 23.7 mg BID, number of patients
# [5] = Early 35% reduction in UPCR or C3/C4 normalization, Week 48, 39.5 mg BID, number of patients
# [6] = early 15% reduction in UPCR or C3/C4 normalization, week 12, 23.7 mg BID
# [7] = early 15% reduction in UPCR or C3/C4 normalization, week 12, 39.5 mg BID
# [8] = early 15% reduction in UPCR or C3/C4 normalization, week 24, 23.7 mg BID
# [9] = early 15% reduction in UPCR or C3/C4 normalization, week 24, 39.5 mg BID
# [10] = early 15% reduction in UPCR or C3/C4 normalization, week 48, 23.7 mg BID
# [11] = early 15% reduction in UPCR or C3/C4 normalization, week 48, 39.5 mg BID
# [12] = early 20% reduction in UPCR or C3/C4 normalization, week 12, 23.7 mg BID
# [13] = early 20% reduction in UPCR or C3/C4 normalization, week 12, 39.5 mg BID
# [14] = early 20% reduction in UPCR or C3/C4 normalization, week 24, 23.7 mg BID
# [15] = early 20% reduction in UPCR or C3/C4 normalization, week 24, 39.5 mg BID
# [16] = early 20% reduction in UPCR or C3/C4 normalization, week 48, 23.7 mg BID
# [17] = early 20% reduction in UPCR or C3/C4 normalization, week 48, 39.5 mg BID
smiles,measurement,setting,value
C=C/C=C/C[C@@H](C)[C@@H](O)[C@H]1C(=O)N[C@@H](CC)C(=O)N(C)CC(=O)N(C)[C@@H](CC(C)C)C(=O)N[C@@H](C(C)C)C(=O)N(C)[C@@H](CC(C)C)C(=O)N[C@@H](C)C(=O)N[C@H](C)C(=O)N(C)[C@@H](CC(C)C)C(=O)N(C)[C@@H](CC(C)C)C(=O)N(C)[C@@H](C(C)C)C(=O)N1C [voclosporin],"No Week 48 Partial Remission, No Early Drop or Normal","lupus nephritis [1]; Early 35% reduction in UPCR or C3/C4 normalization, Week 12, 39.5 mg BID, number of patients",3
same,Early Drop or Normal No,lupus nephritis [1]; [3],4
same,"No Week 48 Partial Remission, Early Drop or Normal",lupus nephritis [1]; [3],10
same,"No Week 48 Partial Remission, No Early Drop or Normal",lupus nephritis [1]; [3],4
same,Early Drop or Normal No,"lupus nephritis [1]; Early 35% reduction in UPCR or C3/C4 normalization, Week 24, 39.5 mg BID, number of patients",10
same,Early Drop or Normal No,lupus nephritis [1]; [4],3
same,"No Week 48 Partial Remission, Early Drop or Normal",lupus nephritis [1]; [4],8
same,"No Week 48 Partial Remission, No Early Drop or Normal",lupus nephritis [1]; [4],3
same,Early Drop or Normal No,lupus nephritis [1]; [5],9
same,"No Week 48 Partial Remission, Early Drop or Normal",lupus nephritis [1]; [5],7
same,"No Week 48 Partial Remission, No Early Drop or Normal",lupus nephritis [1]; [5],9
same,Early Drop or Normal No,lupus nephritis [1]; [6],2
same,"No Week 48 Partial Remission, No Early Drop or Normal",lupus nephritis [1]; [6],1
same,"Week 48 Partial Remission, No Early Drop or Normal",lupus nephritis [1]; [6],1
same,"No Week 48 Partial Remission, No Early Drop or Normal",lupus nephritis [1]; [7],3
same,"Week 48 Partial Remission, No Early Drop or Normal",lupus nephritis [1]; [7],3
same,Early Drop or Normal No,lupus nephritis [1]; [8],1
same,"No Week 48 Partial Remission, No Early Drop or Normal",lupus nephritis [1]; [8],1
same,Early Drop or Normal No,lupus nephritis [1]; [9],9
same,"No Week 48 Partial Remission, No Early Drop or Normal",lupus nephritis [1]; [9],4
same,Early Drop or Normal No,lupus nephritis [1]; [10],1
same,"No Week 48 Partial Remission, Early Drop or Normal",lupus nephritis [1]; [10],10
same,"No Week 48 Partial Remission, No Early Drop or Normal",lupus nephritis [1]; [10],1
same,Early Drop or Normal No,lupus nephritis [1]; [11],4
same,"No Week 48 Partial Remission, No Early Drop or Normal",lupus nephritis [1]; [11],4
same,Early Drop or Normal No,lupus nephritis [1]; [12],3
same,"No Week 48 Partial Remission, No Early Drop or Normal",lupus nephritis [1]; [12],2
same,"Week 48 Partial Remission, No Early Drop or Normal",lupus nephritis [1]; [12],1
same,"No Week 48 Partial Remission, No Early Drop or Normal",lupus nephritis [1]; [13],3
same,"Week 48 Partial Remission, No Early Drop or Normal",lupus nephritis [1]; [13],3
same,Early Drop or Normal No,lupus nephritis [1]; [14],1
same,"No Week 48 Partial Remission, No Early Drop or Normal",lupus nephritis [1]; [14],1
same,Early Drop or Normal No,lupus nephritis [1]; [15],9
same,"No Week 48 Partial Remission, No Early Drop or Normal",lupus nephritis [1]; [15],4
same,Early Drop or Normal No,lupus nephritis [1]; [16],1
same,"No Week 48 Partial Remission, Early Drop or Normal",lupus nephritis [1]; [16],10
same,"No Week 48 Partial Remission, No Early Drop or Normal",lupus nephritis [1]; [16],1
same,Early Drop or Normal No,lupus nephritis [1]; [17],4
same,"No Week 48 Partial Remission, No Early Drop or Normal",lupus nephritis [1]; [17],4
same,Normalization Yes,"lupus nephritis [2]; week 12, 23.7 mg BID",26
same,No Week 48 Partial Remission No Normalization,"lupus nephritis [2]; week 12, 39.5 mg BID",10
same,No Week 48 Partial Remission Normalization,"lupus nephritis [2]; week 12, 39.5 mg BID",7
same,Week 48 Partial Remission No Normalization,"lupus nephritis [2]; week 12, 39.5 mg BID",33
same,Week 48 Partial Remission Normalization,"lupus nephritis [2]; week 12, 39.5 mg BID",29
same,No Week 48 Partial Remission No Normalization,"lupus nephritis [2]; week 24, 23.7 mg BID",10
same,No Week 48 Partial Remission Normalization,"lupus nephritis [2]; week 24, 23.7 mg BID",4
same,Normalization Yes,"lupus nephritis [2]; week 24, 23.7 mg BID",27
same,Normalization Yes,"lupus nephritis [2]; week 24, 39.5 mg BID",31
same,No Week 48 Partial Remission No Normalization,"lupus nephritis [2]; week 48, 23.7 mg BID",8
same,No Week 48 Partial Remission Normalization,"lupus nephritis [2]; week 48, 23.7 mg BID",2
same,No Week 48 Partial Remission No Normalization,"lupus nephritis [2]; week 48, 39.5 mg BID",11
same,Normalization Yes,"lupus nephritis [2]; week 48, 39.5 mg BID",32
